Source: patent US20230159510A1, “NOVEL PRMT5 INHIBITORS” (AMGEN INC., priority 2020, published 2023)

Tests used:
HCT116 MTAP null cells = assay: HCT116 proliferation assay, MTAP null cells (CellTiter-Glo, 6 days); assay type: cell-based; settings: HCT116-MTAP null, 144 h, read-out: Protif_ HCT116-MTAP null IC50
Method in brief: (§1)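 Luminescent viability signal was measured after continuous drug exposure. Before dosing, cells attached overnight (37° C, 5% CO2) in RPMI 1640 + 10% FBS. Dosing used 1:3 steps over 8 or 9 points, starting at 1 or 10 µM, with DMSO-only wells as control.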

HCT116 WT cells = assay: HCT116 proliferation assay, WT cells (CellTiter-Glo, 6 days); assay type: cell-based; settings: Homo sapiens, HCT-116, 144 h, read-out: Prolif_HCT116-WT IC50
Method in brief: as §1

PRMT5/MEP50 = PRMT5/MEP50 (Homo sapiens, UniProt O14744); assay: MTase-Glo methyl transferase assay, Method A (Histone H4 peptide, 1 µM MTA, 24 h pre-incubation); assay type: biochemical; parameters: made in house; settings: read-out: PRMT5 MTase Glo Ki (nM, Meth. A)
Method in brief: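 Luminescent SAH detection (MTase-Glo) after a 2 h room-temperature methylation of 1 µM biotinylated H4 (1-21) peptide by 10 nM PRMT5/MEP50 with 5 µM SAM, in 50 mM Tris pH 8.0.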

PRMT5/MEP50, sequence (O14744 whole entry): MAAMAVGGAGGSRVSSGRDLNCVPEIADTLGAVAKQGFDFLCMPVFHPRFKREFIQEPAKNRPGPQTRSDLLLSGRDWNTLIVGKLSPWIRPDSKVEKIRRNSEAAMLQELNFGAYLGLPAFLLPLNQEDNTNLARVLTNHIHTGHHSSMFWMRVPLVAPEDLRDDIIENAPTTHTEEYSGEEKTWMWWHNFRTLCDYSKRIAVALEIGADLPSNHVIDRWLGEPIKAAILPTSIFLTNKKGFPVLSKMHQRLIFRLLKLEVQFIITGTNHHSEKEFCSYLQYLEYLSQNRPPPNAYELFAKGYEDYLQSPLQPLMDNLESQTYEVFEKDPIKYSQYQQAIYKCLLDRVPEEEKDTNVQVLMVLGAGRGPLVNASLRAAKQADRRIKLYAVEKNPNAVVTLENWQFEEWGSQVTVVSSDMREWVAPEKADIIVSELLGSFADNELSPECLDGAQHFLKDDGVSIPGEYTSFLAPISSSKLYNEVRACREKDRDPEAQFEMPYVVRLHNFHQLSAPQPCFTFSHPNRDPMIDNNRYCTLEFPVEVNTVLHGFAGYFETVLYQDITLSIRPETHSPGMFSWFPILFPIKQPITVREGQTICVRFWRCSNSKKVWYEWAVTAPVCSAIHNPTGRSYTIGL
PRMT5/MEP50, sequence (Q9BQA1 whole entry partner): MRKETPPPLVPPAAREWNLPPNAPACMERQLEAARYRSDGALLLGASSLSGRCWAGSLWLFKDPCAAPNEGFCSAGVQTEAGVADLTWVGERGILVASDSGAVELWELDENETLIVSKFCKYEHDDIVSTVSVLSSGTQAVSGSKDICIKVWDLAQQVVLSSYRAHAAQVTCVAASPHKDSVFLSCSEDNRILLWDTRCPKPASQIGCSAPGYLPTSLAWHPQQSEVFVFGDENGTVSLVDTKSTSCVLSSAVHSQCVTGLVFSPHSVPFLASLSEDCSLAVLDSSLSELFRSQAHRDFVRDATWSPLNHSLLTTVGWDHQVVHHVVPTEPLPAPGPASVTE

IC50 (HCT116 MTAP null cells) | IC50 (HCT116 WT cells) | Ki (PRMT5/MEP50) | Compound
964 nM | > 10000 nM | 0.47 nM | C[C@H](c1ncccn1)N(Cc1ccc(OC2COC2)cn1)C(=O)c1cnc2nc(N)c(Br)cc2c1 [Example 426, 7-amino-6-bromo-N-((5-(3-oxetanyloxy)-2-pyridinyl)methyl)-N-((1R)-1-(2-pyrimidinyl)ethyl)-1,8-naphthyridine-3-carboxamide]
151 nM | 4250 nM | 0.1 nM | Cc1cc2cc(C(=O)N(Cc3ccc(OC4COC4)cn3)[C@H](C)c3ncccn3)ccc2nc1N [Example 427, 2-amino-3-methyl-N-((5-(3-oxetanyloxy)-2-pyridinyl)methyl)-N-((1R)-1-(2-pyrimidinyl)ethyl)-6-quinolinecarboxamide]
39 nM | 607 nM | 0.91 nM | Cc1cc2cc(C(=O)N(Cc3ccc(C(F)(F)F)cn3)[C@H](C)c3ncccn3)c(F)cc2nc1N [Example 429, 2-amino-7-fluoro-3-methyl-N-((1R)-1-(2-pyrimidinyl)ethyl)-N-((5-(trifluoromethyl)-2-pyridinyl)methyl)-6-quinolinecarboxamide]
506 nM | > 10000 nM | 0.42 nM | Cc1cc2cc(C(=O)N(Cc3ccc(C(F)(F)F)cn3)C3(c4ncccn4)CC3)ccc2nc1N [Example 430, 2-amino-3-methyl-N-(1-(2-pyrimidinyl)cyclopropyl)-N-((5-(trifluoromethyl)-2-pyridinyl)methyl)-6-quinolinecarboxamide]

Continued, compound first:

Compound | IC50 (HCT116 MTAP null cells) | IC50 (HCT116 WT cells) | Ki (PRMT5/MEP50)
C[C@H](c1ncccn1)N(Cc1ccc(C(F)(F)F)cn1)C(=O)c1cc2cc(Cl)c(N)nc2cn1 [Example 422, 2-amino-3-chloro-N-((1R)-1-(2-pyrimidinyl)ethyl)-N-((5-(trifluoromethyl)-2-pyridinyl)methyl)-1,7-naphthyridine-6-carboxamide] | 360 nM | > 10000 nM | 0.2 nM
Cc1cc2cc(C(=O)N(Cc3ccc(C#N)cn3)[C@@H](c3ncccn3)C3CC3)ccc2nc1N [Example 423, 2-amino-N-((5-cyano-2-pyridinyl)methyl)-N-((R)-cyclopropyl(2-pyrimidinyl)methyl)-3-methyl-6-quinolinecarboxamide] | 54 nM | 1830 nM | 0.07 nM
C[C@H](c1ncccc1F)N(Cc1ccc(Br)nn1)C(=O)c1cnc2nc(N)c(Br)cc2c1 [Example 424, 7-amino-6-bromo-N-((6-bromo-3-pyridazinyl)methyl)-N-((1R)-1-(3-fluoro-2-pyridinyl)ethyl)-1,8-naphthyridine-3-carboxamide] | 319 nM | 9080 nM | 0.61 nM
N#Cc1ccc(CN(C(=O)c2cnc3nc(N)c(Br)cc3c2)[C@@H](c2ncccn2)C2CC2)nc1 [Example 425, (R)-7-amino-6-bromo-N-((5-cyanopyridin-2-yl)methyl)-N-(cyclopropyl(pyrimidin-2-yl)methyl)-1,8-naphthyridine-3-carboxamide] | 380 nM | 2170 nM | 0.68 nM
Cc1cc2cc(C(=O)N(Cc3ccc(C(F)(F)F)cn3)[C@H](C)c3ccc(Cl)cn3)ccc2nc1N [Example 428, 2-amino-N-((1R)-1-(5-chloro-2-pyridinyl)ethyl)-3-methyl-N-((5-(trifluoromethyl)-2-pyridinyl)methyl)-6-quinolinecarboxamide] | 188 nM | 3680 nM | 0.08 nM
Cc1cc2cc(C(=O)N(Cc3ccc(C#N)cn3)[C@H](C)c3ncc(F)cc3F)ccc2nc1N [Example 431, 2-amino-N-((5-cyano-2-pyridinyl)methyl)-N-((1R)-1-(3,5-difluoro-2-pyridinyl)ethyl)-3-methyl-6-quinolinecarboxamide] | 173 nM | 3210 nM | 0.07 nM
Cc1cc(N)nc2ccc(C(=O)N(Cc3ccc(C(F)(F)F)cn3)[C@H](C)c3ncccn3)cc12 [Example 432, 2-amino-4-methyl-N-((1R)-1-(2-pyrimidinyl)ethyl)-N-((5-(trifluoromethyl)-2-pyridinyl)methyl)-6-quinolinecarboxamide] | 24 nM | 110 nM | 0.57 nM
